Values of other authors in patent US20120171125A1, “Methods for Enhancing the Cognitive Function” (UCB PHARMA, S.A., priority 2009, published 2012).

Columns and labels:
epilepsy = settings: in vivo
SV2A = SV2A (Homo sapiens, UniProt Q7L0J3)
cognitive function = settings: animals and humans

SV2A, sequence (Q7L0J3 whole entry, species assumed): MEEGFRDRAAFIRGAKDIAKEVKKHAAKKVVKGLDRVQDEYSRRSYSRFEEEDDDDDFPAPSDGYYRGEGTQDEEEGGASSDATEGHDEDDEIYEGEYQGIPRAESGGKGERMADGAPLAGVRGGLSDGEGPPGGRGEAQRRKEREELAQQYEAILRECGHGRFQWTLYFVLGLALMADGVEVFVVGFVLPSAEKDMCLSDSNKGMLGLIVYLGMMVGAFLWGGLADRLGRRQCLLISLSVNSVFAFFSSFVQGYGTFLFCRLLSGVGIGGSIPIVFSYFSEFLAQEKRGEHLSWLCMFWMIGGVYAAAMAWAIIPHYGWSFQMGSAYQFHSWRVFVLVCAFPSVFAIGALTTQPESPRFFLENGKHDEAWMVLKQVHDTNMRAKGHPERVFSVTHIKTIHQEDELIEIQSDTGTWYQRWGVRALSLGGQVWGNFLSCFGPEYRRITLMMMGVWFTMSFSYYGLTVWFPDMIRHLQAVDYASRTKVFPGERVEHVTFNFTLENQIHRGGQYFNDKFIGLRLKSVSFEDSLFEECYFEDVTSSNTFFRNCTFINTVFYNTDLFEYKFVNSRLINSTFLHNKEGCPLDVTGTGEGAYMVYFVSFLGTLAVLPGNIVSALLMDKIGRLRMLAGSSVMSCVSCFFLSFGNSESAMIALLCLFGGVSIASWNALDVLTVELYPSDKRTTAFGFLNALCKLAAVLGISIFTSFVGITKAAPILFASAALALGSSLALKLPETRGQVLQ

Row | Compound | antiepileptic activity (epilepsy) | affinity / binding to SV2A (SV2A) | impact on the cognitive function (cognitive function)
1 | CC[C@H](C(N)=O)N1CCCC1=O [(R)-(+)-alpha-ethyl-2-oxo-1-pyrrolidine acetamide] | completely lacks activity | – | –
2 | CC[C@@H](C(N)=O)N1C[C@H](C=C(F)F)CC1=O [Seletracetam, (2S)-2-[(4S)-4-(2,2-difluorovinyl)-2-oxo-pyrrolidinyl]butanamide] | very potent antiepileptic activities | potent affinity to SV2A | –
3 | CCC[C@@H]1CC(=O)N([C@@H](CC)C(N)=O)C1 [brivaracetam, (2S)-2-[(4R)-2-oxo-4-propyl-pyrrolidin-1-yl]butanamide] | very potent antiepileptic activities | potent affinity to SV2A | –
4 | CC[C@@H](C(N)=O)N1CCCC1=O [levetiracetam, (S)-(−)-alpha-ethyl-2-oxo-1-pyrrolidine acetamide] | – | – | no impact on the cognitive function
5 | NC(=O)CN1CCCC1=O [piracetam] | – | does not bind to SV2A | –
